pIC50: −log10 of the molar value. “And” between values parts separate entries of the source, which are not always exact repeats. Identical values can stand only once.
Tested on: 361931-004-R-J1-PDC multicell spheroid viability
Assay: Anticancer human tumor 361931-004-R-J1-PDC patient-derived colon adenocarcinoma cell line growth inhibition [PI3K]
Details: for viability, T/C: stronger effect = lower value; active means viability on the fitted dose curve at most 10% of control; inactive means the rest
From the text: Combinatorial screen of targeted agents with the PI3K inhibitors inavolisib, alpelisib, duvelisib, and copanlisib in multi-cell type tumor spheroids
A high-throughput screen of multi-cell type tumor spheroids was designed to identify active combinations of targeted small molecules and PI3K pathway inhibitors. Complex spheroids include a stromal component modeled by human endothelial cells (HUVEC) and fibroblasts modeled by human mesenchymal stem cells (MSCs). The concentration ranges selected for each drug and investigational agent were based upon clinically achievable concentrations if the clinical Cmax of the agent was known.
Compounds. The drugs and investigational agents: inavolisib (NSC800729), alpelisib (NSC765974), duvelisib (NSC772469), copanlisib (NSC816437), ipatasertib (NSC767898), afuresertib (NSC778305), talazoparib (NSC767125), sapanisertib (NSC764658), selumetinib (NSC741078), tovorafenib (DAY101, NSC766906), vemurafenib (NSC761431), ravoxertinib (NSC781343), sotorasib (NSC818433), MRTX1133 (NSC 836407), abemaciclib (NSC 768073), palbociclib (NSC758247), venetoclax (NSC 766270), SY5609 (NSC837396), enzalutamide (NSC755605), and darolutamide (NSC825331), were obtained from the National Cancer Institute (NCI) Developmental Therapeutics Program Chemical Repository. The FDA-approved anticancer drug set is available from the NCI Developmental Therapeutics Program. […] The stock solutions were prepared in dimethyl sulfoxide (DMSO, Sigma-Aldrich, St. Louis, MO, cat. D2650) at 800-fold the tested concentration and stored at -70 degrees C prior to their use. All drugs and investigational agents were tested over a range starting from a high concentration at or near the clinical Cmax and decreasing in half-log increments. If the clinical Cmax for an agent had not been determined, the highest concentration tested was 10 microM.
Cell Culture. All cells were maintained in an incubator at 37 degrees C and 5% CO2 with 95% humidity. The PDC lines were cultured according to standard operating procedures established by the NCI PDMR (https://pdmr.cancer.gov/sops/default.htm). All PDCs were thawed and cultured in Matrigel-coated flasks prepared with a working solution of 1X Ham's F-12 nutrient mix, without supplementation (Invitrogen, Waltham, MA, cat. 11765054), 100 U/mL penicillin-streptomycin (Invitrogen, cat. 15140122), and 2.5% Matrigel (Corning Inc., Corning, NY, cat. 354248) for the first three passages. The 354836-022-R-J1-PDC, 475296-252-R-J1-PDC, and 997726-040-R-J2-PDC lines were cultured in 6A media, which includes advanced DMEM/F-12 (Thermo Fisher Scientific, cat. 12634028), 10 mM HEPES (Thermo Fisher Scientific, cat. 15630080), 1X GlutaMAX supplement (Thermo Fisher Scientific, cat. 35050061), 0.1 mg/mL primocin (InvivoGen, San Diego, CA, cat. ant-pm-2), 10% defined fetal bovine serum, heat inactivated (HyClone Laboratories Inc., Logan, UT, cat. SH30070.03HI), 50% L-WRN conditioned media (ATCC, cat. CRL-3276), 1.25 mM N-Acetyl-L-cysteine (Sigma-Aldrich, cat. A9165), 10 mM nicotinamide (Sigma-Aldrich, cat. N0636), 1X B-27 supplement (Thermo Fisher Scientific, cat. 17504044), 1X N-2 supplement (Thermo Fisher Scientific, cat. 17502048), and 10 microM Y-27632 dihydrochloride (Tocris Bioscience, Bristol, United Kingdom, cat. 1254). The 624824-186-R-J2-PDC line was cultured in 6C/Colon 1B media, which includes all 6A media components plus 50 ng/mL human EGF recombinant protein (Thermo Fisher Scientific, cat. PHG0311). […]
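Further: spheroids exposed to agents for seven days before readout.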

CCN1CCN(Cc2ccc(Nc3ncc(F)c(-c4cc(F)c5nc(C)n(C(C)C)c5c4)n3)nc2)CC1 + COc1c(OCCCN2CCOCC2)ccc2c3n(c(=NC(=O)c4cnc(N)nc4)nc12)CCN3
6.06: pIC50 (curve of first compound, second compound 0.0316 µM)
6.65: pIC50 (curve of first compound, second compound 0.1 µM)
< 6.00: pIC50 (curve of first compound, second compound 0.00316 µM) | pIC50 (curve of first compound, second compound 0.01 µM)
inactive: viability, T/C (second compound 0.00316 µM, first compound 0.00316 µM) 92.3% | viability, T/C (second compound 0.00316 µM, first compound 0.01 µM) 101% | viability, T/C (second compound 0.00316 µM, first compound 0.0316 µM) 103% | viability, T/C (second compound 0.00316 µM, first compound 0.1 µM) 103% | viability, T/C (second compound 0.00316 µM, first compound 0.316 µM) 94.6% | viability, T/C (second compound 0.00316 µM, first compound 1 µM) 87.6% | viability, T/C (second compound 0.01 µM, first compound 0.00316 µM) 100% | viability, T/C (second compound 0.01 µM, first compound 0.01 µM) 95.1% | viability, T/C (second compound 0.01 µM, first compound 0.0316 µM) 94.4% | viability, T/C (second compound 0.01 µM, first compound 0.1 µM) 85% | viability, T/C (second compound 0.01 µM, first compound 0.316 µM) 77.2% | viability, T/C (second compound 0.01 µM, first compound 1 µM) 64.5% | viability, T/C (second compound 0.0316 µM, first compound 0.00316 µM) 86.7% | viability, T/C (second compound 0.0316 µM, first compound 0.01 µM) 91.3% | viability, T/C (second compound 0.0316 µM, first compound 0.0316 µM) 80.7% | viability, T/C (second compound 0.0316 µM, first compound 0.1 µM) 73.5% | viability, T/C (second compound 0.0316 µM, first compound 0.316 µM) 62.3% | viability, T/C (second compound 0.0316 µM, first compound 1 µM) 48.1% | viability, T/C (second compound 0.1 µM, first compound 0.00316 µM) 80.8% | viability, T/C (second compound 0.1 µM, first compound 0.01 µM) 74.3% | viability, T/C (second compound 0.1 µM, first compound 0.0316 µM) 60.3% | viability, T/C (second compound 0.1 µM, first compound 0.1 µM) 54.3% | viability, T/C (second compound 0.1 µM, first compound 0.316 µM) 51.2% | viability, T/C (second compound 0.1 µM, first compound 1 µM) 39.9% | viability, T/C (second compound 0.316 µM, first compound 0.00316 µM) 50% | viability, T/C (second compound 0.316 µM, first compound 0.01 µM) 44.7% | viability, T/C (second compound 0.316 µM, first compound 0.0316 µM) 43.2% | viability, T/C (second compound 0.316 µM, first compound 0.1 µM) 39.7% | viability, T/C (second compound 0.316 µM, first compound 0.316 µM) 39% | viability, T/C (second compound 0.316 µM, first compound 1 µM) 39.9% | viability, T/C (second compound 1 µM, first compound 0.00316 µM) 22.7% | viability, T/C (second compound 1 µM, first compound 0.01 µM) 21.8% | viability, T/C (second compound 1 µM, first compound 0.0316 µM) 18.7% | viability, T/C (second compound 1 µM, first compound 0.1 µM) 22.2% | viability, T/C (second compound 1 µM, first compound 0.316 µM) 30.3% | viability, T/C (second compound 1 µM, first compound 1 µM) 32.1%
> 8.50: pIC50 (curve of first compound, second compound 0.316 µM) | pIC50 (curve of first compound, second compound 1 µM)

CC(=O)c1c(C)c2cnc(Nc3ccc(N4CCNCC4)cn3)nc2n(C2CCCC2)c1=O
inactive: viability, T/C (compound 0.000316 µM) 103% [middle of 4 runs] | viability, T/C (compound 0.001 µM) 105% [middle of 4 runs] | viability, T/C (compound 0.00316 µM) 100% [middle of 4 runs] | viability, T/C (compound 0.01 µM) 103% [middle of 4 runs] | viability, T/C (compound 0.0316 µM) 108% (2×) and 92.8% and 104% | viability, T/C (compound 0.1 µM) 86.5% [middle of 4 runs]
< 7.00: pIC50 (curve of compound)

From PubChem BioAssay AID1963979 (Molecular Pharmacology Branch, DTP, NCI, 2024)
